In patent publication USRE48461E1, “Modulation of androgen receptor expression” (Ionis Pharmaceuticals, Inc., priority 2012, dated 2021):
Oligonucleotides are written 5' to 3', each unit as a sugar letter and its base; * is a phosphorothioate linkage, no mark a phosphodiester; rarer units and linkages stand in square brackets, end groups in braces. Plain capitals give the bases only. k = constrained ethyl (cEt); [5mC] = 5-methylcytosine; d = 2'-deoxy (DNA)

Experiments:
[1] = test system: AR mRNA; test: Dose-dependent antisense inhibition of human AR in HuVEC cells (electroporation, qRT-PCR RTS3559, IC50); type: cell-based; details: HuVEC, electroporation, approximately 16 hours
Summary of the method: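 HuVEC cells dosed with antisense oligonucleotides by electroporation and treated approximately 16 hours. AR mRNA quantified by real-time qPCR with primer probe set RTS3559 and normalised to total RNA by RIBOGREEN; IC50 from dose-response.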

[2] = test system: AR mRNA; test: Antisense inhibition of human AR in HuVEC cells, single concentration (electroporation, qRT-PCR RTS3559); type: cell-based; details: 500 nM ASO, ~24 h
Summary of the method: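 AR mRNA levels were measured with human primer-probe set RTS3559 and adjusted for total RNA (RIBOGREEN). Cells were HuVEC, with each antisense oligonucleotide delivered by electroporation at one concentration.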

| Substance | percent inhibition of AR, 46.9 nM ([1]; Table 30) [%] | percent inhibition of AR, 187.5 nM ([1]; Table 30) [%] | percent inhibition of AR, 750.0 nM ([1]; Table 30) [%] | percent inhibition of AR, 3000.0 nM ([1]; Table 30) [%] | IC50 ([1]; Table 30) [nM] | % inhibition ([2]; Table 17) [%] | percent inhibition of AR, 46.9 nM ([1]; Table 29) [%] | percent inhibition of AR, 187.5 nM ([1]; Table 29) [%] | percent inhibition of AR, 750.0 nM ([1]; Table 29) [%] | percent inhibition of AR, 3000.0 nM ([1]; Table 29) [%] | IC50 ([1]; Table 29) [nM] | % inhibition ([2]; Table 18) [%] | percent inhibition of AR, 46.9 nM ([1]; Table 31) [%] | percent inhibition of AR, 187.5 nM ([1]; Table 31) [%] | percent inhibition of AR, 750.0 nM ([1]; Table 31) [%] | percent inhibition of AR, 3000.0 nM ([1]; Table 31) [%] | IC50 ([1]; Table 31) [nM] |
| --- | --- | --- | --- | --- | --- | --- | --- | --- | --- | --- | --- | --- | --- | --- | --- | --- | --- |
| 583642 (antisense kA*kG*kT*dG*dT*d[5mC]*d[5mC]*dA*d[5mC]*dT*dG*dA*dA*kG*kT*kA) [compound 583642] | 18 | 35 | 67 | 74 | 460 | 42 | – | – | – | – | – | – | – | – | – | – | – |
| 583649 (antisense kA*kG*kG*d[5mC]*dT*d[5mC]*dA*d[5mC]*dA*dG*dT*d[5mC]*dT*kG*kT*k[5mC]) [compound 583649] | – | – | – | – | – | 46 | 28 | 50 | 68 | 84 | 200 | – | – | – | – | – | – |
| 583660 (antisense kG*kA*k[5mC]*dA*d[5mC]*dA*d[5mC]*dG*dG*dT*dG*dG*dA*k[5mC]*kA*kA) [compound 583660] | – | – | – | – | – | 44 | 21 | 39 | 61 | 72 | 420 | – | – | – | – | – | – |
| 583662 (antisense kA*kG*kA*dA*dG*dA*d[5mC]*dA*d[5mC]*dA*d[5mC]*dG*dG*kT*kG*kG) [compound 583662] | – | – | – | – | – | 51 | 27 | 59 | 75 | 75 | 150 | – | – | – | – | – | – |
| 583667 (antisense k[5mC]*kG*k[5mC]*dT*d[5mC]*dT*dG*dA*d[5mC]*dA*dG*d[5mC]*d[5mC]*kT*k[5mC]*kA) [compound 583667] | 35 | 55 | 73 | 82 | 140 | 42 | – | – | – | – | – | – | – | – | – | – | – |
| 583687 (antisense kG*kG*kT*dA*dG*dT*d[5mC]*dG*d[5mC]*dT*dG*d[5mC]*dA*kG*k[5mC]*kT) [compound 583687] | 34 | 67 | 83 | 81 | 80 | – | – | – | – | – | – | 41 | – | – | – | – | – |
| 583688 (antisense kG*k[5mC]*kG*dG*dT*dA*dG*dT*d[5mC]*dG*d[5mC]*dT*dG*k[5mC]*kA*kG) [compound 583688] | 3 | 26 | 50 | 60 | 1050 | – | – | – | – | – | – | 38 | – | – | – | – | – |
| 583689 (antisense kA*kT*kG*d[5mC]*dG*dG*dT*dA*dG*dT*d[5mC]*dG*d[5mC]*kT*kG*k[5mC]) [compound 583689] | 20 | 34 | 62 | 74 | 440 | – | – | – | – | – | – | 39 | – | – | – | – | – |
| 583692 (antisense kG*kT*kG*dA*dT*dG*dA*dT*dG*d[5mC]*dG*dG*dT*kA*kG*kT) [compound 583692] | 8 | 47 | 61 | 71 | 440 | – | – | – | – | – | – | 41 | – | – | – | – | – |
| 583693 (antisense k[5mC]*kT*kG*dT*dG*dA*dT*dG*dA*dT*dG*d[5mC]*dG*kG*kT*kA) [compound 583693] | – | – | – | – | – | – | – | – | – | – | – | 36 | 12 | 39 | 64 | 80 | 380 |
| 583700 (antisense kG*kA*kA*dG*dA*dG*dT*dT*d[5mC]*dA*dA*d[5mC]*dA*kG*kG*k[5mC]) [compound 583700] | – | – | – | – | – | – | – | – | – | – | – | 36 | 14 | 34 | 57 | 71 | 550 |
| 583709 (antisense kG*k[5mC]*kT*dT*dG*dG*d[5mC]*dT*dG*dA*dA*dT*d[5mC]*kT*kT*k[5mC]) [compound 583709] | 8 | 50 | 70 | 84 | 290 | – | – | – | – | – | – | 39 | – | – | – | – | – |
| 583712 (antisense k[5mC]*k[5mC]*kT*dT*dG*dA*dG*d[5mC]*dT*dT*dG*dG*d[5mC]*kT*kG*kA) [compound 583712] | 15 | 47 | 72 | 78 | 290 | – | – | – | – | – | – | 37 | – | – | – | – | – |
| 583713 (antisense kA*kT*k[5mC]*d[5mC]*dT*dT*dG*dA*dG*d[5mC]*dT*dT*dG*kG*k[5mC]*kT) [compound 583713] | – | – | – | – | – | – | – | – | – | – | – | 36 | 29 | 51 | 67 | 74 | 220 |
| 583714 (antisense kT*k[5mC]*k[5mC]*dA*dT*d[5mC]*d[5mC]*dT*dT*dG*dA*dG*d[5mC]*kT*kT*kG) [compound 583714] | – | – | – | – | – | – | – | – | – | – | – | 36 | 22 | 34 | 59 | 79 | 400 |
| 583719 (antisense kG*kT*kA*dG*dG*dT*d[5mC]*dT*dT*dG*dG*dA*d[5mC]*kG*kG*k[5mC]) [compound 583719] | – | – | – | – | – | – | – | – | – | – | – | 36 | 22 | 46 | 65 | 72 | 320 |
| 583727 (antisense kG*kA*kT*dT*d[5mC]*dT*dG*dG*dA*dA*dA*dG*d[5mC]*kT*k[5mC]*k[5mC]) [compound 583727] | 18 | 49 | 70 | 76 | 290 | – | – | – | – | – | – | 40 | – | – | – | – | – |
| 583728 (antisense kG*k[5mC]*kT*d[5mC]*dT*dG*dG*dA*dA*d[5mC]*dA*dG*dA*kT*kT*k[5mC]) [compound 583728] | 9 | 48 | 67 | 70 | 400 | – | – | – | – | – | – | 45 | – | – | – | – | – |
| 583731 (antisense k[5mC]*kG*k[5mC]*dG*d[5mC]*dA*d[5mC]*dG*d[5mC]*dT*d[5mC]*dT*dG*kG*kA*kA) [compound 583731] | – | – | – | – | – | – | – | – | – | – | – | 34 | 18 | 24 | 47 | 58 | 1310 |
| 583734 (antisense kT*k[5mC]*kA*d[5mC]*dT*dT*d[5mC]*dG*d[5mC]*dG*d[5mC]*dA*d[5mC]*kG*k[5mC]*kT) [compound 583734] | 29 | 60 | 74 | 75 | 120 | – | – | – | – | – | – | 46 | – | – | – | – | – |
